Test results taken from patent US12364733B1, “Method for treating septic shock” (Inotrem, priority 2018, dated 2025).

Test system: septic shock patients
Experiment: Phase IIa clinical trial with nangibotide in septic shock patients: SOFA score evolution
Assay type: in vivo, human
Protocol: This was a randomized, double-blind, two-stage, placebo-controlled study. As described in FIG. 7, the study was composed of 2 stages with a similar treatment regimen, in which 0.3, 1.0 or 3.0 mg/kg/h of nangibotide (corresponding to peptide LR12, having an amino acid sequence as set forth in SEQ ID NO: 9, also known as motrem) was tested versus placebo. All patients with a diagnosis of septic shock were considered for study participation. All potential study patients underwent standard care management procedures. Patients with evidence of septic shock according to the Sepsis-3 definition (Singer et al, JAMA 2016) were considered for inclusion (i.e., patients suffering from sepsis and having (i) persisting hypotension requiring vasopressors to maintain their mean arterial pressure ≥65 mm Hg and (ii) a serum lactate level >2 mmol/L (18 mg/dL) despite adequate volume resuscitation).
After screening for eligibility, patients were randomized to one of the treatment arms. Then, they received either a 5 mg/kg loading dose of nangibotide over 15 minutes followed by a continuous intravenous (i.v.) infusion of nangibotide or a matching placebo on top of standard of care. Treatment with study drug was initiated as early as possible, but no later than 24 hours after the onset of septic shock, defined by the start of vasopressor therapy. Patients were treated until 12 (±2) hours after the resolution of their septic shock (defined as vasopressor withdrawal) with a maximum treatment duration of 5 days (120 hours).
Adverse events (AEs) were coded using the MedDRA dictionary version 18.1. Treatment-emergent adverse events (TEAEs) were summarized and listed. Analysis was performed in 49 septic shock patients. The demographic and baseline characteristics were summarized in a descriptive fashion within each population: categorical variables were summarized by contingency tables (frequencies and percentages). sTREM-1 levels at day 1 were also described (mean, standard deviation, standard error, median, quartiles and range, minimum and maximum values). Mortality rates were reported by frequency and percentage. For continuous endpoints, i.e., the sequential organ failure assessment (SOFA), missing data were imputed using LOCF (Last Observation Carry-Forward). For time-to-event analyses, i.e., duration of invasive mechanical ventilation (IMV), duration of continuous renal replacement therapy (CRRT), survival, censored data techniques were utilized. In addition, a sensitivity analysis of time to event data (except survival) was performed using censoring at maximum limit for the corresponding observation period (i.e., either day 28 or day 90). […] The following comparisons were made: each nangibotide dose arm to placebo, all nangibotide doses combined versus placebo, and dose-response using an ordinal trend test. Exploratory composite endpoint: incidence (number and proportion) of patients alive at day 28 and free of vasopressor, free of IMV and free of CRRT were summarized by treatment and compared between treatments with a Fisher's exact test. For pharmacodynamic markers, log transformed data were represented as percentage change from baseline at day 5 or End of Infusion (EOI) if end of infusion was stopped before day 5. […] “All nangibotide” refers to analyses obtained by pooling data from 0.3, 1 and 3 mg/kg/h nangibotide-treated groups.

[1] = patients with low sTREM-1 at baseline (below median 433 pg/mL), Day 3, 3.0 mg/kg/h
[2] = patients with low sTREM-1 at baseline (below median 433 pg/mL), Day 3, all nangibotide doses pooled
[3] = patients with low sTREM-1 at baseline (below median 433 pg/mL), Day 4, 0.3 mg/kg/h
[4] = patients with low sTREM-1 at baseline (below median 433 pg/mL), Day 4, 1.0 mg/kg/h
[5] = patients with low sTREM-1 at baseline (below median 433 pg/mL), Day 4, 3.0 mg/kg/h
[6] = patients with low sTREM-1 at baseline (below median 433 pg/mL), Day 4, all nangibotide doses pooled
[7] = patients with low sTREM-1 at baseline (below median 433 pg/mL), Day 5, 1.0 mg/kg/h
[8] = whole population, Day 1, 0.3 mg/kg/h
[9] = whole population, Day 1, 1.0 mg/kg/h
[10] = whole population, Day 1, 3.0 mg/kg/h
[11] = whole population, Day 1, all nangibotide doses pooled
[12] = whole population, Day 2, 0.3 mg/kg/h
[13] = whole population, Day 2, 1.0 mg/kg/h
[14] = whole population, Day 2, 3.0 mg/kg/h
[15] = whole population, Day 2, all nangibotide doses pooled
[16] = whole population, Day 3, 0.3 mg/kg/h
[17] = whole population, Day 3, 1.0 mg/kg/h
[18] = whole population, Day 3, 3.0 mg/kg/h
[19] = whole population, Day 3, all nangibotide doses pooled
[20] = whole population, Day 4, 0.3 mg/kg/h
[21] = whole population, Day 4, 1.0 mg/kg/h
[22] = whole population, Day 4, 3.0 mg/kg/h
[23] = whole population, Day 4, all nangibotide doses pooled
[24] = whole population, Day 5, 1.0 mg/kg/h

nangibotide (LQEEDAGEYGCM; TLT-1 peptide)
SOFA score evolution (change versus baseline, LOCF), LSMean (SE) [1]: −2.10 (1.35) | SOFA score, estimated difference (SE) vs. placebo [1]: 0.01 (1.69) | SOFA score evolution (change versus baseline, LOCF), LSMean (SE) [2]: −2.10 (0.67) | SOFA score, estimated difference (SE) vs. placebo [2]: 0.02 (1.23) | SOFA score evolution (change versus baseline, LOCF), LSMean (SE) [3]: −2.70 (0.94) | SOFA score, estimated difference (SE) vs. placebo [3]: −0.57 (1.32) | SOFA score evolution (change versus baseline, LOCF), LSMean (SE) [4]: −1.79 (1.03) | SOFA score, estimated difference (SE) vs. placebo [4]: 0.34 (1.41) | SOFA score evolution (change versus baseline, LOCF), LSMean (SE) [5]: −2.62 (1.24) | SOFA score, estimated difference (SE) vs. placebo [5]: −0.49 (1.55) | SOFA score evolution (change versus baseline, LOCF), LSMean (SE) [6]: −2.37 (0.62) | SOFA score, estimated difference (SE) vs. placebo [6]: −0.24 (1.13) | SOFA score evolution (change versus baseline, LOCF), LSMean (SE) (patients with low sTREM-1 at baseline (below median 433 pg/mL), Day 5, 0.3 mg/kg/h): −2.71 (1.10) | SOFA score, estimated difference (SE) vs. placebo (patients with low sTREM-1 at baseline (below median 433 pg/mL), Day 5, 0.3 mg/kg/h, 0.3 mg/kg): −0.71 (1.56) | SOFA score, estimated difference (SE) vs. placebo (patients with low sTREM-1 at baseline (below median 433 pg/mL), Day 5, 0.3 mg/kg/h, listed as nangibotide, 0.3 mg/kg): −0.71 | SOFA score evolution (change versus baseline, LOCF), LSMean (SE) [7]: −1.93 (1.21) | SOFA score, estimated difference (SE) vs. placebo [7]: 0.06 (1.65) | SOFA score evolution (change versus baseline, LOCF), LSMean (SE) (patients with low sTREM-1 at baseline (below median 433 pg/mL), Day 5, 3.0 mg/kg/h): −1.87 (1.46) | SOFA score, estimated difference (SE) vs. placebo (patients with low sTREM-1 at baseline (below median 433 pg/mL), Day 5, 3.0 mg/kg/h, 3 mg/kg): 0.12 (−1.82) | SOFA score, estimated difference (SE) vs. placebo (patients with low sTREM-1 at baseline (below median 433 pg/mL), Day 5, 3.0 mg/kg/h, listed as nangibotide, 3 mg/kg): 0.12 | SOFA score evolution (change versus baseline, LOCF), LSMean (SE) (patients with low sTREM-1 at baseline (below median 433 pg/mL), Day 5, all nangibotide doses pooled): −2.17 (0.73) | SOFA score evolution (change versus baseline, LOCF), LSMean (SE) [8]: −0.65 (0.52) | SOFA score, estimated difference (SE) vs. placebo [8]: 0.26 (0.75) | SOFA score evolution (change versus baseline, LOCF), LSMean (SE) [9]: −0.39 (0.54) | SOFA score, estimated difference (SE) vs. placebo [9]: 0.53 (0.77) | SOFA score evolution (change versus baseline, LOCF), LSMean (SE) [10]: −0.33 (0.54) | SOFA score, estimated difference (SE) vs. placebo [10]: 0.59 (0.76) | SOFA score evolution (change versus baseline, LOCF), LSMean (SE) [11]: −0.45 (0.31) | SOFA score, estimated difference (SE) vs. placebo [11]: 0.46 (0.62) | SOFA score evolution (change versus baseline, LOCF), LSMean (SE) [12]: −2.27 (0.63) | SOFA score, estimated difference (SE) vs. placebo [12]: −0.94 (0.91) | SOFA score evolution (change versus baseline, LOCF), LSMean (SE) [13]: −1.97 (0.65) | SOFA score, estimated difference (SE) vs. placebo [13]: −0.64 (0.92) | SOFA score evolution (change versus baseline, LOCF), LSMean (SE) [14]: −0.91 (0.65) | SOFA score, estimated difference (SE) vs. placebo [14]: 0.42 (0.92) | SOFA score evolution (change versus baseline, LOCF), LSMean (SE) [15]: −1.72 (0.37) | SOFA score, estimated difference (SE) vs. placebo [15]: −0.38 (0.75) | SOFA score evolution (change versus baseline, LOCF), LSMean (SE) [16]: −2.67 (0.68) | SOFA score, estimated difference (SE) vs. placebo [16]: −1.42 (0.98) | SOFA score evolution (change versus baseline, LOCF), LSMean (SE) [17]: −1.87 (0.71) | SOFA score, estimated difference (SE) vs. placebo [17]: −0.62 (1.00) | SOFA score evolution (change versus baseline, LOCF), LSMean (SE) [18]: −0.91 (0.70) | SOFA score, estimated difference (SE) vs. placebo [18]: 0.34 (1.00) | SOFA score evolution (change versus baseline, LOCF), LSMean (SE) [19]: −1.82 (0.40) | SOFA score, estimated difference (SE) vs. placebo [19]: −0.57 (0.81) | SOFA score evolution (change versus baseline, LOCF), LSMean (SE) [20]: −2.91 (0.67) | SOFA score, estimated difference (SE) vs. placebo [20]: −1.50 (0.96) | SOFA score evolution (change versus baseline, LOCF), LSMean (SE) [21]: −1.95 (0.70) | SOFA score, estimated difference (SE) vs. placebo [21]: −0.53 (0.98) | SOFA score evolution (change versus baseline, LOCF), LSMean (SE) [22]: −1.16 (0.69) | SOFA score, estimated difference (SE) vs. placebo [22]: 0.26 (0.98) | SOFA score evolution (change versus baseline, LOCF), LSMean (SE) [23]: −2.00 (0.40) | SOFA score, estimated difference (SE) vs. placebo [23]: −0.59 (0.80) | SOFA score evolution (change versus baseline, LOCF), LSMean (SE) (whole population, Day 5, 0.3 mg/kg/h): −2.91 (0.71) | SOFA score, estimated difference (SE) vs. placebo (whole population, Day 5, 0.3 mg/kg/h, 0.3 mg/kg): −1.66 (1.03) | SOFA score, estimated difference (SE) vs. placebo (whole population, Day 5, 0.3 mg/kg/h, listed as nangibotide, 0.3 mg/kg): −1.66 | SOFA score evolution (change versus baseline, LOCF), LSMean (SE) [24]: −2.03 (0.74) | SOFA score, estimated difference (SE) vs. placebo [24]: −0.78 (1.04) | SOFA score evolution (change versus baseline, LOCF), LSMean (SE) (whole population, Day 5, 3.0 mg/kg/h): −0.90 (0.74) | SOFA score, estimated difference (SE) vs. placebo (whole population, Day 5, 3.0 mg/kg/h, 3 mg/kg): 0.34 (1.04) | SOFA score, estimated difference (SE) vs. placebo (whole population, Day 5, 3.0 mg/kg/h, listed as nangibotide, 3 mg/kg): 0.34 | SOFA score evolution (change versus baseline, LOCF), LSMean (SE) (whole population, Day 5, all nangibotide doses pooled): −1.95 (0.42) | SOFA score decrease during the first 5 days vs. placebo (whole population, no statistically significant differences): consistent numerical trend in favor of nangibotide
